Source: patent publication US12527977B2, “Combined neuromodulation techniques” (GE Precision Healthcare LLC, priority 2021, dated 2026)

Key:
[1] = system: Zucker diabetic fatty (ZDF) rat model; assay: Chronic non-fasted blood glucose monitoring in ZDF rats, drug combined with pFUS ultrasound stimulation; format: in vivo
Description: The following relates to the diabetic animal model used and the method of ultrasound neuromodulation. • Animal Model of Type 2 Diabetes • Zucker diabetic fatty (ZDF) rat model Adult male ZDF rats (Charles River, Kingston, NY USA) were ordered for arrival prior to 8 weeks of age. All animals were maintained on a high caloric rodent chow (Purina 5008), provided, with water, provided ad libitum. […] All procedures performed in accordance with the National Institutes of Health (NIH) Guidelines under protocols approved by the Institutional Animal Care and Use Committee (IACUC) of GE Global Research. ZDF animals were acclimated by daily handling to prevent stress-induced changes in circulating glucose. […] All rats were anesthetized at 1-4% isoflurane at 1 L/min O2. Rats were then placed on a water circulating warming pad, with a rectal thermometer probe to maintain body temperature. The abdominal area was completely shaved and the hair fully removed with Nair to allow for later stimulation of nerve plexus located in either the hepatic or GI systems. […] These locations were then marked with a permanent marker and a ultrasound stimulation probe was placed on the target area. The prototype pFUS device then delivered 3 minutes of stimulation (1.1 MHz, 150 burst cycles, 500 us burst period) Blood glucose levels of the rats were monitored on a daily basis for chronic studies and at 5-minute intervals for acute and OGTT studies. In chronic studies additional blood samples were collected on a weekly basis for the analysis of circulating markers. A final terminal blood sample was collected at the time of euthanization and used for the evaluation of circulating insulin levels. For the prototype pFUS device, stimulus (1.1 MHZ, 200 mV per pulse, 150 burst cycles, 500 us burst period) was applied to each region for 3 minutes per target. For example, pFUS was initially applied to the hepatic portal region for 3 minutes. […] There was an about 5 minute delay period in between stimulation of the first and second, or second and third anatomical target sites. Blood samples obtained from the tail vein were used to assess daily glucose (for chronic studies) and 5-minute glucose intervals (for acute studies) using a Freestyle Freedom Lite (Abbott Diabetes Inc., Alameda, CA, US). The Freestyle Freedom Light meter using a small blood 15 volume (0.3 uL) and as such no additional fluids were needed to recover total volume following blood sampling. Combination of pharmaceutical intervention and pFUS therapy was tested to determine the effects of dual therapies on therapeutic window as well as duration of efficacy. […] This dosing regimen (timing) is identical to that used in humans with dosing to occur prior to both morning and evening mealtimes. […]

[2] = system: Zucker diabetic fatty (ZDF) rat model; settings: previously shown treatment, cited from earlier work
[3] = low dose metformin alone cohort, FIG. 9 data 304

Compound | remission after ultrasound cessation ([1]; low dose metformin added to dual-site stimulation (7 days ultrasound, then stopped), FIG. 9 data 302) | blood glucose [1, 3] | effectiveness (absolute decrease in blood glucose or length of time spent below 200 mg/dL) versus liraglutide alone [1, 3] | blood glucose reduction duration versus single site plus liraglutide cohort ([1]; low dose metformin plus single site (hepatoportal plexus) stimulus, FIG. 9 data 306) | effect in ZDF animals far along in disease progression ([2]; FGF1 icv, animals with >300 mg/dL average glucose) | remission in the ZDF model ([2]; FGF1 injection into the intracerebroventricular (icv) space) [week]
CN(C)C(=N)N=C(N)N [Metformin] | did not result in extended remission | temporary drop below 200 mg/dL | not as effective as the liraglutide alone cohort | not as effective | – | –
FGF1: FGF1 injected into the intracerebroventricular space; previously reported treatment | – | – | – | – | failed to work | 4
